Results taken from patent US20080317857A1, “V-Atpase Inhibitors of Use in the Treatment of Septic Shock” (Brane Discovery S.r.l., priority 2005, published 2008).
Read-outs that look alike come from different tables or passages of the source.

Legend:
[1] = tested on: NADPH-oxidase activation (H2O2 release) in PMNs; experiment: Respiratory burst (H2O2 assay) in PMNs; format: cell-based, human; details: Homo sapiens, read-out: Inhibition of H2O2 release induced by PMA in PMNs (% PMA control); for inhibition at 0.0005 µM: [cpd] 0.0005 μM; for inhibition at 0.001 µM: [cpd] 0.001 μM
Description: (§1) NADPH-oxidase activation was measured as induction of H2O2 release (derived from dismutation of O2^−) triggered in PMNs and monocytes by PMA (200 ng/ml). Briefly, PMNs and monocytes were pretreated at 37° C. for 30-60 min with test compound at different concentrations, and stimulated with phorbol 12-myristate 13-acetate (PMA, 200 ng/ml) dissolved in 0.5 ml of a standard reaction mixture. Release of H2O2 was evaluated in real time at time points of 5 min by using a microplate fluorescence reader (Perkin-Elmer). Results are expressed as nmoles of H2O2 released over time by 10^6 cells. Shown are dose-response curves of inhibitory effect on H2O2 release over 60 min.

[2] = tested on: NADPH-oxidase activation (H2O2 release) in Monocytes; experiment: Respiratory burst (H2O2 assay) in monocytes; format: cell-based, human; details: Homo sapiens, Monocyte; for inhibition at 0.0005 µM: [cpd] 0.0005 μM
Description: as §1

V-ATPase = details: literature; cited from earlier work
PMNs = experiment: Chemoattractant-induced rapid adhesion of PMNs to fibrinogen (CR3 ligand); format: cell-based; details: Homo sapiens, read-out: Inhibition of Adhesion (%) PMNs (fMLP) (converted); for inhibition at 25 µM: [cpd] 25 μM; for inhibition at 50 µM: [cpd] 50 μM; for inhibition at 100 µM: [cpd] 100 μM
Description: (§2) Adhesion was performed on purified integrin ligands and was evaluated as reported in Constantin G. et al., Immunity, 16, 759-769, 2000. Briefly, primary naïve lymphocytes, polymorphonuclear neutrophils (PMNs) or monocytes were isolated form healthy donors. In other experiments, murine autoreactive T cells were obtained from SJL mice immunized with PLP139-151 as described (Piccio L. et al., J. Immunol. 168, 1940-1949, 2002). Cells were resuspended at 4×10^6/ml in PBS, CaCl2, MgCl2 1 mM, 10% FCS, pH 7.2. Adhesion assays were performed on eighteen well glass slides coated overnight at 4° C. with ligands for CR3 (fibrinogen) or LFA-1 (ICAM-1). 20 μl of cell suspension were added to the wells and stimulated at 37° C. with 5 μl of agonists prior to washing, fixation and computer-assisted enumeration of bound cells.
(§3) Integrin activation was measured as induction of rapid adhesion triggered by the classical chemoattractant N-formyl-L-methionyl-L-leucyl-phenylalanine (fMLP) (100 nM) or by the CC chemokine MIP3β (CCL19, 1 μM). PMNs and monocytes were triggered to adhere to fibrinogen (CR3 ligand); naive human lymphocytes or murine encephalitogenic T cells were triggered to adhere to ICAM-1 (LFA-1 ligand). Triggered adhesion was evaluated after 2 min of stimulation under static conditions. The cells were pretreated at 37° C. for 30-60 min with the indicated concentrations of the test compound. Results are expressed as percentage of inhibition over control (=100%) and are the mean of three experiments in the case of human leukocytes. Results are expressed as mean counts and are the mean counts±S.D of three experiments and are the mean of three experiments in the case of murine encephalitogenic lymphocytes.
(§4) Integrin activation was measured as induction of rapid adhesion triggered by the “classical” chemoattractant fMLP (100 nM) or by the CC chemokine MIP3β(CCL19, 1 μM). PMNs were triggered to adhere to fibrinogen (CR3 ligand); lymphocytes were triggered to adhere to ICAM-1 (LFA-1 ligand).

Lymphocytes = experiment: Chemokine-induced rapid adhesion of lymphocytes to ICAM-1 (LFA-1 ligand); format: cell-based; details: Homo sapiens, Lymphocyte, read-out: Inhibition of Adhesion (%) Lymphocytes (MIP3-β) (converted); for inhibition at 25 µM: [cpd] 25 μM; for inhibition at 50 µM: [cpd] 50 μM; for inhibition at 100 µM: [cpd] 100 μM
Description: as §2, §3, §4

[3] = tested on: encephalitogenic lymphocytes; experiment: Chemokine-induced adhesion of murine encephalitogenic T cells to ICAM-1; format: cell-based, murine (SJL mice); details: NT control in the same cell
Description: as §2, §3
Chemokines trigger rapid arrest of lymphocytes in blood vessels through pertussis toxin-sensitive G protein coupled receptors. […] Autoreactive lymphocytes were then stimulated with 1 μM CCL19 (MIP-3beta) for 3 min.

Compound | inhibition at 25 µM (PMNs) [%] | inhibition at 50 µM (PMNs) [%] | inhibition at 100 µM (PMNs) [%] | inhibition at 25 µM (Lymphocytes) [%] | inhibition at 50 µM (Lymphocytes) [%] | inhibition at 100 µM (Lymphocytes) [%] | Chemokine-induced Adhesion in encephalitogenic lymphocytes, Mean counts ± S.D., in absence of MIP3-β stimulation ([3]; [cpd] 5 μM) | Chemokine-induced Adhesion in encephalitogenic lymphocytes, Mean counts ± S.D., in presence of MIP3-β stimulation ([3]; [cpd] 5 μM) | Chemokine-induced Adhesion in encephalitogenic lymphocytes, Mean counts ± S.D., in absence of MIP3-β stimulation ([3]; [cpd] 50 μM) | Chemokine-induced Adhesion in encephalitogenic lymphocytes, Mean counts ± S.D., in presence of MIP3-β stimulation ([3]; [cpd] 50 μM) | further results
CO/C1=C\C(C)=C\[C@@H](C)[C@@H](O)[C@@H](C)C/C(C)=C/C=C/[C@H](OC)[C@@H]([C@@H](C)[C@@H](O)[C@H](C)[C@@]2(O)C[C@@H](O)[C@H](C)[C@@H](C(C)C)O2)OC1=O [Bafilomycin A1] | – | – | – | – | – | – | – | – | – | – | inhibition at 0.0005 µM ([1]; 0.5 h, 30 min): 7.1%; inhibition at 0.001 µM ([1]; 0.5 h, 30 min): 26.4%; inhibition at 0.0005 µM ([1]; 40 min, 40 min): 9.8%; inhibition at 0.001 µM ([1]; 40 min, 40 min): 27.2%; inhibition at 0.0005 µM ([1]; 50 min, 50 min): 9.3%; inhibition at 0.001 µM ([1]; 50 min, 50 min): 29.9%; inhibition at 0.0005 µM ([2]; 0.5 h, 30 min, read-out: Inhibition of H2O2 release induced by PMA in Monocytes (% PMA control)): 22.1%; inhibition at 0.001 µM ([2]; 0.5 h, [cpd] 0.001 μM, 30 min, read-out: Inhibition of H2O2 release induced by PMA in Monocytes (% PMA control)): 30.8%; inhibition at 0.0005 µM ([2]; 40 min, 40 min, read-out: Inhibition of H2O2 release induced by PMA in Monocytes (% PMA control)): 28.2%; inhibition at 0.001 µM ([2]; 40 min, [cpd] 0.001 μM, 40 min, read-out: Inhibition of H2O2 release induced by PMA in Monocytes (% PMA control)): 37.2%; inhibition at 0.0005 µM ([2]; 50 min, 50 min, read-out: Inhibition of H2O2 release induced by PMA in Monocytes (% PMA control)): 32.4%; inhibition at 0.001 µM ([2]; 50 min, [cpd] 0.001 μM, 50 min, read-out: Inhibition of H2O2 release induced by PMA in Monocytes (% PMA control)): 47.9%; inhibition at 0.001 µM ([2]; 1 nM concentration, read-out: inhibition of the respiratory burst in monocytes): 48%; inhibition of V-ATPase (in words) (V-ATPase): very potent and highly specific inhibitors
COc1ccc(-c2c(C(N)=O)[nH]c3cc(OC)c(OC)cc23)cc1 [Example 14] | 62.8 | 83.9 | 94.9 | 30.9 | 70.9 | 91.8 | – | – | – | – | –
COc1ccc(-c2c(-c3nnco3)[nH]c3cc(OC)c(OC)cc23)cc1 [Example 26] | 34.7 | 50.5 | 57.5 | 8.7 | 21.9 | 26.7 | 93.1 ± 7.5 | 125.9 ± 7.2 | 49.8 ± 5.9 | 98.9 ± 12.0 | –
COc1ccc(-c2c3n(c4cc(OC)c(OC)cc24)CCNC3)cc1 [Example 28] | 34.7 | 41 | 46.5 | 16.7 | 34.8 | 49.1 | 75.7 ± 9.0 | 127.0 ± 5.0 | 48.6 ± 2.9 | 118.8 ± 10.8 | –
COCCn1c(C(=O)OC)c(-c2ccc(OC)cc2)c2cc(OC)c(OC)cc21 [Example 39] | 33.8 | 39.1 | 44.8 | 8.2 | 26.4 | 41.4 | 72.9 ± 8.8 | 118.2 ± 10.0 | 44.8 ± 1.9 | 104.4 ± 5.0 | –
CCCn1c(C#N)c(-c2ccccc2)c2cc(OC)c(OC)cc21 [Example 50] | – | – | – | – | – | – | 81.7 ± 11.9 | 124.5 ± 8.1 | 62.0 ± 4.0 | 92.0 ± 3.0 | –
COC(=O)c1c(-c2ccc(OC)cc2)c2cc(OC)c(OC)cc2n1CCN1CCCC1 [Example 52] | 0.8 | 11 | 6.1 | 45.9 | 53.5 | 58.9 | 31.8 ± 3.1 | 103.2 ± 10.2 | 24.9 ± 12.8 | 82.3 ± 8.1 | Chemokine-induced Adhesion in encephalitogenic lymphocytes, Mean counts ± S.D., in absence of MIP3-β stimulation ([3]; [cpd] 1 μM): 51.9 ± 3.9; Chemokine-induced Adhesion in encephalitogenic lymphocytes, Mean counts ± S.D., in presence of MIP3-β stimulation ([3]; [cpd] 1 μM): 118.9 ± 4.0
COc1ccc(-c2c(C#N)n(CCN3CCOCC3)c3cc(OC)c(OC)cc23)cc1 [Example 56] | 3.4 | 11.6 | 8.7 | 0 | 12.6 | 72.8 | 64.1 ± 9.9 | 92.3 ± 2.3 | 49.7 ± 3.9 | 79.4 ± 12.1 | –
COc1ccc(-c2c3n(c4cc(OC)c(OC)cc24)CCN(S(=O)(=O)C(C)C)C3)cc1 [Example 68] | – | – | – | – | – | – | 62.3 ± 9.0 | 102.8 ± 5.5 | 33.5 ± 6.0 | 74.3 ± 3.9 | –
COc1ccc(-c2c3n(c4cc(OC)c(OC)cc24)CCOC3)cc1 [Example 76] | 25.6 | 35.7 | 66.3 | 30.1 | 40.3 | 48.3 | – | – | – | – | –
CCOC(=O)c1[nH]c2cc(OC)c(OC)cc2c1-c1ccncc1 [Example 81] | 14.4 | 0.8 | 0 | 4.5 | 12.7 | 34.9 | 56.2 ± 11.1 | 84.5 ± 8.8 | 41.3 ± 3.6 | 99.2 ± 5.0 | –
